According to ChEMBL document CHEMBL4145536, “Design, synthesis and biological evaluation of novel bouchardatine analogs as potential inhibitors of adipogenesis/lipogenesis in 3T3-L1 adipocytes” (Eur J Med Chem, 2018):
Calls of active or inactive are those of the source. The calls are words filed in the database; no cut-off is given here.

Experiments:
[1] = tested on: 3T3-L1; experiment: Cytotoxicity against mouse 3T3L1 cells assessed as decrease in cell viability after 24 hrs by MTT assay; type: cell-based; settings: 3T3-L1, 24 h
[2] = tested on: HepG2; experiment: Cytotoxicity against human HepG2 cells assessed as decrease in cell viability after 24 hrs by MTT assay; type: cell-based; settings: HepG2, 24 h
[3] = tested on: HepG2; experiment: Lipid lowering activity in human HepG2 cells assessed as decrease in triglyceride level at 10 uM for 6 days in presence of oleic acid by oil red o-staining based assay relative to control; type: functional; design: scale not given: the % may be the effect or the level left
[4] = tested on: 3T3-L1; experiment: Lipid lowering activity in mouse 3T3L1 cells assessed as decrease in triglyceride level at 10 uM for 6 days by oil red o-staining based assay relative to control; type: functional; design: scale not given: the % may be the effect or the level left
[5] = tested on: 3T3-L1; experiment: Cytotoxicity against mouse 3T3L1 cells assessed as decrease in cell viability up to 10 uM measured up to 72 hrs by LDH release assay; type: cell-based; settings: 3t3-l1, 72 h
[6] = tested on: 3T3-L1; experiment: Lipid lowering activity in mouse 3T3L1 cells assessed as decrease in triglyceride level at 10 uM for 6 days by oil red o-staining based microscopic assay; type: functional, cell-based
[7] = tested on: 3T3-L1; experiment: Lipid lowering activity in mouse 3T3L1 cells assessed as decrease in triglyceride level treated 2 days post confluent for 9 days by oil red o-staining based assay; type: functional, cell-based
[8] = species on record: Mus musculus; experiment: Induction of AMPKalpha phosphorylation at Thr172 residue in mouse 3T3L1 cells at 2 mM after 4 hrs by Western blot analysis; type: cell-based

## Clc1c(-c2nc(NCCN3CCOCC3)c3ccccc3n2)[nH]c2ccccc12
[1]
  IC50: 37.9 µM
[2]
  IC50: 15.6 µM
[3]
  Activity: 46.9%
[4]
  Activity: 54.6%

## Brc1c(-c2nc(NCCCN3CCCCC3)c3ccccc3n2)[nH]c2ccccc12
[1]
  IC50: 14.9 µM
[2]
  IC50: 6 µM
[3]
  Activity: 62.3%
[4]
  Activity: 84.9%

## CN(C)CCCNc1nc(-c2[nH]c3ccccc3c2F)nc2ccccc12
[1]
  IC50: 22.2 µM
[2]
  IC50: 6 µM
[3]
  Activity: 32.7%
[4]
  Activity: 45%

## Fc1c(-c2nc(Cl)c3ccccc3n2)[nH]c2ccccc12
[5]
  Activity: Non-Toxic
[6]
  Activity: Active
[7]
  Activity: Dose-dependent effect
  EC50: 0.92 µM
[1]
  IC50: > 50 µM
[2]
  IC50: > 50 µM
[3]
  Activity: 40.7%
[4]
  Activity: 71.8%

## NC(=O)c1ncn([C@@H]2O[C@H](CO)[C@@H](O)[C@H]2O)c1N
[8]
  Activity: Active

## Clc1c(-c2nc(NCCCN3CCOCC3)c3ccccc3n2)[nH]c2ccccc12
[1]
  IC50: 30.1 µM
[2]
  IC50: 10.3 µM
[3]
  Activity: 36.6%
[4]
  Activity: 56.6%

## CN(C)CCNc1nc(-c2[nH]c3ccccc3c2F)nc2ccccc12
[1]
  IC50: 21.7 µM
[2]
  IC50: 4.2 µM
[3]
  Activity: 24.2%
[4]
  Activity: 57.3%

## CC(C)CNc1nc(-c2[nH]c3ccccc3c2Cl)nc2ccccc12
[6]
  Activity: Active
[1]
  IC50: > 50 µM
[2]
  IC50: 22.8 µM
[3]
  Activity: 42.8%
[4]
  Activity: 45.7%

## CN(C)CCCNc1nc(-c2[nH]c3ccccc3c2Cl)nc2ccccc12
[1]
  IC50: 18.1 µM
[2]
  IC50: 4.1 µM
[3]
  Activity: 35.8%
[4]
  Activity: 49.5%

## CCN(CC)CCNc1nc(-c2[nH]c3ccccc3c2Br)nc2ccccc12
[1]
  IC50: 15.4 µM
[2]
  IC50: 6.1 µM
[3]
  Activity: 50%
[4]
  Activity: 86.5%

## O=Cc1c(-c2nc(NCCN3CCCC3)c3ccccc3n2)[nH]c2ccccc12
[4]
  Activity: 94.9%

## CN(C)CCNc1nc(-c2[nH]c3ccccc3c2Cl)nc2ccccc12
[1]
  IC50: 14.8 µM
[2]
  IC50: 2.7 µM
[3]
  Activity: 33%
[4]
  Activity: 89.1%

## CN(C)CCCNc1nc(-c2[nH]c3ccccc3c2Br)nc2ccccc12
[6]
  Activity: Active
[1]
  IC50: 11.6 µM
[2]
  IC50: 4.3 µM
[3]
  Activity: 28.3%
[4]
  Activity: 59.2%

## Clc1nc(-c2[nH]c3ccccc3c2Br)nc2ccccc12
[6]
  Activity: Active
[1]
  IC50: > 50 µM
[2]
  IC50: > 50 µM
[3]
  Activity: 0.9%
[4]
  Activity: 58.9%

## CN(C)CCCNc1nc(-c2[nH]c3ccccc3c2C=O)nc2ccccc12
[6]
  Activity: Active
[1]
  IC50: 34.4 µM
[2]
  IC50: 27.4 µM
[3]
  Activity: 52.1%
[4]
  Activity: 82.1%

## Fc1c(-c2nc(NCCN3CCCC3)c3ccccc3n2)[nH]c2ccccc12
[1]
  IC50: 24.5 µM
[2]
  IC50: 7.3 µM
[3]
  Activity: 23.6%
[4]
  Activity: 64.2%

## CCN(CC)CCNc1nc(-c2[nH]c3ccccc3c2Cl)nc2ccccc12
[1]
  IC50: 19.2 µM
[2]
  IC50: 4.6 µM
[3]
  Activity: 15.6%
[4]
  Activity: 87.5%

## OCCCNc1nc(-c2[nH]c3ccccc3c2F)nc2ccccc12
[1]
  IC50: > 50 µM
[2]
  IC50: 30 µM
[3]
  Activity: 26.3%
[4]
  Activity: 44.4%

## CN(C)CCNc1nc(-c2[nH]c3ccccc3c2Br)nc2ccccc12
[6]
  Activity: Active
[1]
  IC50: 11.4 µM
[2]
  IC50: 4.1 µM
[3]
  Activity: 46.1%
[4]
  Activity: 56.4%

## O=c1[nH]c(-c2[nH]c3ccccc3c2Br)nc2ccccc12
[6]
  Activity: Active
[1]
  IC50: > 50 µM
[2]
  IC50: > 50 µM
[3]
  Activity: 40.4%
[4]
  Activity: 34.6%

## c1ccc2[nH]c(-c3nc(NCCN4CCCC4)c4ccccc4n3)cc2c1
[1]
  IC50: 20.4 µM
[2]
  IC50: 40.4 µM
[3]
  Activity: 13.1%
[4]
  Activity: 66.8%

## Brc1c(-c2nc(NCCN3CCCC3)c3ccccc3n2)[nH]c2ccccc12
[1]
  IC50: 12.6 µM
[2]
  IC50: 4.3 µM
[3]
  Activity: 54.3%
[4]
  Activity: 84.2%

## O=c1[nH]c(C2=Nc3ccccc3C2(F)F)nc2ccccc12
[6]
  Activity: Active
[1]
  IC50: > 50 µM
[2]
  IC50: > 50 µM
[3]
  Activity: 24.1%
[4]
  Activity: 39.4%

## Clc1c(-c2nc(NCCCN3CCCC3)c3ccccc3n2)[nH]c2ccccc12
[1]
  IC50: 20.1 µM
[2]
  IC50: 4.7 µM
[3]
  Activity: 51.4%
[4]
  Activity: 53.8%

## Brc1c(-c2nc(NCCN3CCCCC3)c3ccccc3n2)[nH]c2ccccc12
[1]
  IC50: 13.2 µM
[2]
  IC50: 5.1 µM
[3]
  Activity: 62.1%
[4]
  Activity: 83.8%

## c1ccc2[nH]c(-c3nc(NCCCN4CCCC4)c4ccccc4n3)cc2c1
[1]
  IC50: > 50 µM
[2]
  IC50: > 50 µM
[3]
  Activity: 14.2%
[4]
  Activity: 42.7%

## O=c1[nH]c(-c2cc3ccccc3[nH]2)nc2ccccc12
[1]
  IC50: 43.8 µM
[2]
  IC50: 14.9 µM
[3]
  Activity: 14.9%
[4]
  Activity: 43.8%

## Clc1c(-c2nc(NCCN3CCCC3)c3ccccc3n2)[nH]c2ccccc12
[1]
  IC50: 24.5 µM
[2]
  IC50: 2.5 µM
[3]
  Activity: 42.5%
[4]
  Activity: 60.5%

## CN(C)CCNc1nc(-c2cc3ccccc3[nH]2)nc2ccccc12
[1]
  IC50: 12.9 µM
[2]
  IC50: 25.3 µM
[3]
  Activity: 0.6%
[4]
  Activity: 42.3%

## CN(C)CCCNc1nc(-c2cc3ccccc3[nH]2)nc2ccccc12
[1]
  IC50: 30.3 µM
[2]
  IC50: 44.2 µM
[3]
  Activity: 5.8%
[4]
  Activity: 48.2%

## CC(C)CCNc1nc(-c2[nH]c3ccccc3c2F)nc2ccccc12
[6]
  Activity: Active
[1]
  IC50: > 50 µM
[2]
  IC50: 28.7 µM
[3]
  Activity: 38.7%
[4]
  Activity: 37.3%

## OCCNc1nc(-c2[nH]c3ccccc3c2Cl)nc2ccccc12
[1]
  IC50: > 50 µM
[2]
  IC50: 20.9 µM
[3]
  Activity: 53.1%
[4]
  Activity: 38.3%

## CN1CCN(CCCNc2nc(-c3[nH]c4ccccc4c3F)nc3ccccc23)CC1
[1]
  IC50: 19.8 µM
[2]
  IC50: 5.2 µM
[3]
  Activity: 22.5%
[4]
  Activity: 42.5%

## O=c1[nH]c(-c2[nH]c3ccccc3c2Cl)nc2ccccc12
[6]
  Activity: Active
[1]
  IC50: > 50 µM
[2]
  IC50: > 50 µM
[3]
  Activity: 51.9%
[4]
  Activity: 35.4%

## Clc1c(-c2nc(NCCN3CCCCC3)c3ccccc3n2)[nH]c2ccccc12
[6]
  Activity: Active
[1]
  IC50: 41.6 µM
[2]
  IC50: 18 µM
[3]
  Activity: 52%
[4]
  Activity: 70.3%

## Brc1c(-c2nc(NCCCN3CCCC3)c3ccccc3n2)[nH]c2ccccc12
[1]
  IC50: 9.6 µM
[2]
  IC50: 3.1 µM
[3]
  Activity: 53.1%
[4]
  Activity: 81.6%

## Clc1nc(-c2[nH]c3ccccc3c2Cl)nc2ccccc12
[6]
  Activity: Active
[1]
  IC50: > 50 µM
[2]
  IC50: > 50 µM
[3]
  Activity: 37.7%
[4]
  Activity: 45.6%

## CN1CCN(CCCNc2nc(-c3[nH]c4ccccc4c3Cl)nc3ccccc23)CC1
[1]
  IC50: 14.4 µM
[2]
  IC50: 2.7 µM
[3]
  Activity: 41.2%
[4]
  Activity: 83.4%
